Source: US11723894B2, “Combination product for the treatment of neurological and/or psychiatric disorders” (Consejo Superior de Investigaciones Cientificas (CSIC), priority 2017, dated 2023)

Columns and labels:
[1] = system: Human SH-SY5Y dopaminergic cells; assay: 6-OHDA in vitro model of Parkinson's Disease, nitrite quantification (Griess); format: cell-based; settings: DMT 1 μM 1 h, then 6-OHDA 30 μM 24 h
[2] = system: astrocytes; assay: LPS-induced nitrite production (Griess) in primary astrocyte cultures; format: cell-based, rat
Protocol: (§1) Example 8: DMT, DET, DPT and 5-MeO-DMT administration in vitro prevents inflammation in rat primary glial cells. […] Rat primary glial cell cultures were prepared from the cerebral cortex of 3 day old rats which were dissected, dissociated, and incubated with 0.25% trypsin/EDTA at 37° C. for 1 h. After centrifugation, the pellet was washed three times with HBSS (Gibco) and the cells were plated in poly-D-lysine (20 μg/mL) pretreated flasks (75 cm2). After 7-10 days, the flasks were agitated in an orbital shaker for 4 h at 230 rpm at 37° C. and non-adherent microglial cells were isolated and plated. Then Dulbecco's Modified Eagle's Medium (DMEM) was added to the flasks, which were agitated in a horizontal shaker at 260 rpm at 37° C. After overnight agitation, the supernatant (oligodendrocytes and some remaining microglial cells) was removed, and astrocytes (adherent cells) were collected. The purity of the cultures was >95%, as determined by immunofluorescence analysis using an anti-glial fibrillary acidic protein (GFAP; clone G-A-5; Sigma-Aldrich) antibody to identify astrocytes, and an anti-Iba1 (Wako Catalog No. 019-19741) antibody to identify microglial cells. On attaining semiconfluence, cells were administered each of the test tryptamines at 1 μM or with the combination test tryptamine+Ritanserin (Rit at 1 μM) 2 h before exposure to lipopolysaccharide (LPS, 10 μg/mL; Sigma-Aldrich) and kept in the presence of each drug or drug combination for 24 h. In combination studies, Rit was added to medium 1h before administration of the corresponding tryptamine. Vehicle-treated cultures were used as a control. After the 24 h drug exposure period, cultures were tested to assess nitrite release. To quantify nitrite concentrations in culture medium, supernatants of glial cultures were collected and mixed with an equal volume of Griess reagent (Sigma-Aldrich). Samples were then incubated at room temperature for 15 min and absorbance was measured at 540 nm on a microplate reader. Results are expressed as the mean±SEM of six replications in three different experiments

[3] = system: microglial cells; assay: LPS-induced nitrite production (Griess) in primary microglial cultures; format: cell-based, rat; settings: microglia
Protocol: as §1

[4] = system: hippocampal subgranular neurogenic niche; assay: Short-term (4 days) in vivo activation of the hippocampal subgranular neurogenic niche (BrdU); set-up: species or system C57BL/6 mice; settings: DMT 0.1 μg/animal, lateral ventricle, sacrificed day 5
Protocol: Adult male C57BL/6 mice (obtained from Charles River Labs) were injected in the lateral ventricle (coordinates: from bregma, posterior −1 mm, lateral +1.3 mm, ventral +2 mm, according to the atlas of Paxinos and Franklin (Paxinos G, Franklin KBJ. The Mouse Brain in Stereotaxic Coordinates. 4. San Diego: Academic Press; 2012)), using a stereotaxic apparatus (Kopf Instruments, CA) with DMT (0.1 μg/animal), alone or in combination with the selective Sigma-1 BD1063 (BD, 0.2 μg/animal, Sigma, catalog number SML0276), the mixed 5-HT2A/1A receptor antagonist methiothepin (Met, 0.2 μg/animal, Sigma catalog number M149), or the selective 5-HT1A receptor antagonist WAY100635 (WAY, 0.2 μg/animal, ABCAM catalog number ab120550). Prior to the injection, mice were anesthetized by intraperitoneal injection of ketamine (60 mg/kg) and medetomidine (0.125 mg/kg). […] The boundaries of these nervous system regions were determined with reference to internal anatomic landmarks (Paxinos G, Franklin KBJ. The Mouse Brain in Stereotaxic Coordinates. 4. San Diego: Academic Press; 2012). For DG area selection, images were analyzed using computer-assisted image analysis software (Soft Imaging System Corporation, Lakewood, Colo., http://www.soft-imaging.com). Positive cells, which intersected the uppermost focal plane (exclusion plane) and the lateral exclusion boundaries of the counting frames, were not counted. […]

[5] = Rit 1 μM 1 h before tryptamine 1 μM, then LPS 10 μg/mL 24 h
[6] = tryptamine 1 μM before LPS 10 μg/mL, 24 h, vs LPS alone

SMILES: CN(C)CCc1c[nH]c2ccccc12 [DMT, N,N-dimethyltryptamine]
- nitrite production brought about by 6-OHDA ([1]; vs 6-OHDA alone): significantly reduced
- reduction of nitrite levels in the presence of Ritanserin ([1]; Rit 1 μM 1 h): preserved
- reduction of LPS-induced nitrite in the presence of Rit [2, 5]: maintained
- LPS-induced nitrite increases [2, 6]: significantly reduced
- reduction of LPS-induced nitrite in the presence of Rit [3, 5]: maintained
- LPS-induced nitrite increases [3, 6]: significantly reduced
- BrdU staining (proliferation) in the hippocampus [4]: increases
